# Assay results reported in patent US9526680B2, “Method for searching for malodor control agent, malodor control agent, and malodor control method” (Kao Corporation, priority 2010, dated 2016).
# How the values were obtained:
# OR51E1 = biological target: T1, OR51E1 (Homo sapiens, UniProt Q8TCB6); experiment: Luciferase reporter gene assay, OR51E1 expressed in HEK293 cells; type: cell-based; details: for Inhibition ratio of OR51E1 response: response to hexanoic acid, test substance added together with hexanoic acid, HEK293
# T1 construct: expressed in transfected cells; host or cells: HEK293
# T1 sequence (Q8TCB6 1-318): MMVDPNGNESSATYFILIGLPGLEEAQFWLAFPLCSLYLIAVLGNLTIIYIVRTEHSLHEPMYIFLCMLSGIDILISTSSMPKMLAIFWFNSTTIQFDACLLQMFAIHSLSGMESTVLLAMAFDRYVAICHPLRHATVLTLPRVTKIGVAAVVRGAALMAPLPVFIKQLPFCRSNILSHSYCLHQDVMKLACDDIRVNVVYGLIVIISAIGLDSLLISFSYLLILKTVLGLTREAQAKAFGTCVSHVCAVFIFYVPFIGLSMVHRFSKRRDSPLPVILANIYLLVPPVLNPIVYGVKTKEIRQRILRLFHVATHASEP
# Procedure: (§1) Cloning of human olfactory receptors was performed based on the sequence information registered in GenBank, through PCR with human genomic DNA female (G1521: Promega) as a template. Each of the genes amplified through PCR was inserted into a pENTR vector (Invitrogen) according to an instruction manual. Then, the gene-inserted vector was digested with NotI and AscI, and the obtained fragments were inserted into NotI and AscI sites located downstream of the Flag-Rho tag sequence in the pME18S vector.
# (§2) Each of the 350 types of human olfactory receptors was expressed in HEK293 cells. A reaction solution having a composition shown in Table 2 was prepared on a clean bench, and left to stand for 15 minutes. The solution was dispensed to each well of a 96-well plate (BD). Subsequently, […] cells (100 μL, 3×10^5 cells/cm^2) were seeded in each well and cultured for 24 hours in an incubator at 37° C. and under 5% CO2 conditions.
# (§3) The olfactory receptor expressed in HEK293 cell was conjugated with cell-intrinsic Gas to activate adenylate cyclase, and thereby the level of intracellular cAMP was increased. For the measurement of the response to odor in this study, the luciferase reporter gene assay was used, in which an increase in the amount of intracellular cAMP was monitored by using the emission value originating from firefly luciferase gene (fluc2P-CRE-hygro) as an indicator. Furthermore, a gene product obtained by fusing renilla luciferase gene in the downstream of CMV promoter (hRluc-CMV) was simultaneously introduced, and this was used as an internal standard for correcting an error in the transgenesis efficiency or the number of cells. The medium was removed from the culture prepared in the above-described section 3) by using a Pipetman, and 75 μl of a solution containing an odor substance (1 mM hexanoic acid or 300 μM nonanoic acid) prepared in CD293 medium (Invitrogen) was added thereto. The cells were cultured for 4 hours in a CO2 incubator, and the luciferase gene was sufficiently expressed in the cells. For the measurement of luciferase activity, the measurement was carried out by using a Dual-Glo™ luciferase assay system (Promega) according to the operation manual of the product. A value calculated by dividing the emission value, derived from a firefly luciferase induced by the stimulation with an odor substance, by the emission value in cells that were not-stimulated with an odor substance, was designated as a fold increase, and used as an index of response intensity.
# (§4) OR2W1, OR10A6, OR51E1, OR51I2, and OR51L1 were respectively expressed in HEK293 cells by the same method as that used in Example 1, and a luciferase assay was carried out. In the luciferase assay, hexanoic acid was used as the odorous substance, and test substances were added together with hexanoic acid. The response of the olfactory receptors to hexanoic acid was measured, and a decrease in the receptor response to the addition of test substances was evaluated.
# (§5) The inhibition ratios of the receptor response to test substances were calculated as follows. The emission value (Y) obtained from the cells in which the same receptors were introduced but no odor stimulation was conducted, was subtracted from the emission value derived from firefly luciferase (X) induced by odor stimulation with hexanoic acid alone. Similarly, the emission value (Y) obtained from the cells in which no odor stimulation was conducted, was subtracted from the emission value (Z) caused by stimulation with a mixture of hexanoic acid and a test substance. By the following calculation formula, the inhibitory activity of the test substance to receptor response was calculated based on the increment of the emission value (X−Y) caused by stimulation of hexanoic acid alone. Multiple independent experiments were performed in duplicate, and the average of each experiment was obtained. Inhibition ratio (%)={1−(Z−Y)/(X−Y)}×100 […]
# OR2W1 = biological target: T2, OR2W1 (Homo sapiens, UniProt Q9Y3N9); experiment: Luciferase reporter gene assay, OR2W1 expressed in HEK293 cells; type: cell-based; details: for Inhibition ratio of OR2W1 response: response to hexanoic acid, test substance added together with hexanoic acid, HEK293
# T2 construct: expressed in transfected cells; host or cells: HEK293
# T2 sequence (Q9Y3N9 1-320): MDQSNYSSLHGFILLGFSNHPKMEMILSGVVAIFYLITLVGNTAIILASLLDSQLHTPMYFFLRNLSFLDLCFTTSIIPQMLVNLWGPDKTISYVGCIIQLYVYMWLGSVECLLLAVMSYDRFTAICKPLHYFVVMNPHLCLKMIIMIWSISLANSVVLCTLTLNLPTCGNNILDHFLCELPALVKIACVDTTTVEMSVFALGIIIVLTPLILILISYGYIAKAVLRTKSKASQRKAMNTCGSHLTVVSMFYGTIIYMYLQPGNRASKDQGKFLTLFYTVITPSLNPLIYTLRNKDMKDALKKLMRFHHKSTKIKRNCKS
# Procedure: as §1, §2, §3, §4, §5
# [1] = Sensory evaluation test of hexanoic acid odor inhibition; type: in vivo; details: for Intensity of odor: hexanoic acid odor, malodor alone rated as 5, 0 to 10 points, test substance diluted 100 times with propylene glycol, three panelists; for Inhibition of hexanoic acid odor (in words): sensory test, test substance diluted 100 times with propylene glycol (FIG. 5, Table 4)
# Procedure: Cotton balls were introduced into a glass bottle (Hakuyo Glass Co., Ltd. No. 11, capacity 110 ml), and hexanoic acid diluted 100 times with propylene glycol, nonanoic acid diluted 10 times with propylene glycol, or isovaleric acid diluted 1000 times with propylene glycol, as a malodor, and a test substance were added dropwise in an amount of […] to the cotton balls. The glass bottle was left to stand overnight at room temperature, and the odor molecules were sufficiently volatilized in the glass bottle. A sensory evaluation test was carried out by a panel of three panelists (5 panelists for isovaleric acid), and while the intensity of odor in the case of adding dropwise the malodor alone was rated as 5, the intensity of the malodor in the case of incorporating a test substance was evaluated on the basis of a system of 20 grades from 0 point to 10 points (0.5 points per grade).
# Regarding the test substance, florhydral (Givaudan SA), bourgeonal (Givaudan SA), hydroxycitronellal (Givaudan SA, International Flavors & Fragrances, Inc., and the like), 4-isopropylcyclohexanecarbaldehyde (synthesized according to a method described in JP-A-2-188549), 4-(2-methoxyphenyl)-2-methyl-2-butanol (JP-A-9-111281), florosa (Givaudan SA), isocyclocitral (Givaudan SA, International Flavors & Fragrances, Inc., and the like), tripral (International Flavors & Fragrances, Inc.), and Pollenal II (Kao Corp.), which had been diluted 100 times with propylene glycol, were used for hexanoic acid; florhydral that had been diluted 10 times with propylene glycol was used for nonanoic acid; and florhydral that had been diluted 1000 times with propylene glycol was used for isovaleric acid.
# [2] = 1 mM hexanoic acid, test substance 3, 10, 30, 100, 300 μM (FIG. 4)
molecule,measurement,setting,value
"2,4,6-trimethyl-3-cyclohexene-1-carboxyaldehyde, 3,5,6-trimethyl-3-cyclohexene-1-carboxyaldehyde [Isocyclocitral]",Inhibition ratio of OR51E1 response,OR51E1,1 (Inhibition ratio: 50% or higher)
same,Inhibition ratio of OR2W1 response,OR2W1,1 (Inhibition ratio: 50% or higher)
same,Intensity of odor,[1],0.67
same,Inhibition of hexanoic acid odor (in words),[1],inhibit the hexanoic acid odor
"CC(C)c1cccc(C(C)CC=O)c1 (stereo not shown) [Florhydral, 3-(3-isopropylphenyl)-butyraldehyde]",Inhibition of OR51E1 response to hexanoic acid (in words),OR51E1; [2],in a concentration-dependent manner
same,Inhibition ratio of OR51E1 response,OR51E1,1 (Inhibition ratio: 50% or higher)
same,Inhibition of OR2W1 response to hexanoic acid (in words),OR2W1; [2],in a concentration-dependent manner
same,Inhibition ratio of OR2W1 response,OR2W1,1 (Inhibition ratio: 50% or higher)
same,Intensity of odor,[1],1.25
same,Inhibition of hexanoic acid odor (in words),[1],markedly inhibited
